Marks after values point to notes of the source that are not given here. Where no end group is shown, it is not given here.
Columns and labels:
GRPR [1] = molecular target: GRPR (Homo sapiens, UniProt P30550); test: biochemical
Description: All experiments were performed in triplicate and 1 × 10^6 cells/dish were seeded one day before the experiment.

[2] = test system: GRPR-expressing PC-3 tumour xenograft; conditions: 0.5 h after injection; co-injection of non-labelled NOTA-PEG4-RM26
Description: (§1) Animal studies were planned and performed in agreement with EU Directive 2010/63/EU for animal experiments and Swedish national legislation concerning protection of laboratory animals. Experiments were approved by the Ethics Committee for Animal Research in Uppsala (C4/16, 26 February 2016). Biodistribution studies were performed in female BALB/C nu/nu mice purchased from Scanbur A/S (Karlslunde, Denmark). GRPR-expressing xenografts were established by subcutaneous injection of 5 × 10^6 PC-3 cells/mouse in the right hind leg of mice 3 weeks before the experiment. The animals were randomized into groups of four mice for each data point.
Mice were euthanized followed by dislocation of their neck at 0.5 h after injection and blood samples were collected by heart puncture. At 3 and 24 h after injection, mice were euthanized by an intraperitoneal injection of anaesthetic solution (20 µL of solution per gram of body weight: Ketalar, 10 mg/mL; Rompun, 1 mg/mL) followed by heart puncture. […] The organ radioactivity was measured in a gamma-counter and uptake values of organs were calculated as percentage of injected dose per gram tissue (% ID/g). To test the in vivo binding specificity, a group of mice was co-injected with 7.5 nmol of non-labelled peptide (NOTA-PEG4-RM26), and biodistribution was measured at 0.5 h after injection.

[3] = test system: GRPR-expressing PC-3 tumour xenograft; test: in vivo; conditions: 0.5 h after injection; 40 pmol i.v.; non-blocked
Description: as §1
(§2) Mice were euthanized followed by dislocation of their neck at 0.5 h after injection and blood samples were collected by heart puncture. At 3 and 24 h after injection, mice were euthanized by an intraperitoneal injection of anaesthetic solution (20 µL of solution per gram of body weight: Ketalar, 10 mg/mL; Rompun, 1 mg/mL) followed by heart puncture. Salivary glands, thyroid, lung, liver, spleen, pancreas, stomach, small intestine, kidneys, tumour, muscle, and bone were collected and weighed. The organ radioactivity was measured in a gamma-counter and uptake values of organs were calculated as percentage of injected dose per gram tissue (% ID/g). To test the in vivo binding specificity, a group of mice was co-injected with 7.5 nmol of non-labelled peptide (NOTA-PEG4-RM26), and biodistribution was measured at 0.5 h after injection.

in vivo = conditions: mouse, iv, 40 pmol, Uptake, 40 pmol i.v.; for tissue uptake at 0.5 h: 0.5 h after injection; for tissue uptake at 3 h: 3 h after injection; for tissue uptake at 24 h: 24 h after injection
Description: as §1, §2

[4] = Description: Lipophilicity was determined as the logarithm of partition coefficient, logP, of the radiolabelled compound between n-octanol and water. To determine the lipophilicity of both radioconjugates, 500 µL of n-octanol was added to a tube containing the same volume of Milli-Q water. 1 pmol (10 kBq) of radioconjugate was added. The mixture was vigorously vortexed for 1–2 min and then centrifuged. Aliquots of 100 μL were taken from each phase and their radioactivity was measured by an automated gamma-counter. The partition coefficient was calculated as the average log of a ratio of the radioactivity in organic and aqueous fractions. Each measurement was repeated in triplicate.
GRPR [5] = test system: GRPR; set-up: method as in PMID 16818949, PMID 7876231; conditions: within 20–40 min; cited from earlier work
[6] = small intestine, small intestine

Sequence of GRPR (Homo sapiens, UniProt P30550) (P30550 whole entry): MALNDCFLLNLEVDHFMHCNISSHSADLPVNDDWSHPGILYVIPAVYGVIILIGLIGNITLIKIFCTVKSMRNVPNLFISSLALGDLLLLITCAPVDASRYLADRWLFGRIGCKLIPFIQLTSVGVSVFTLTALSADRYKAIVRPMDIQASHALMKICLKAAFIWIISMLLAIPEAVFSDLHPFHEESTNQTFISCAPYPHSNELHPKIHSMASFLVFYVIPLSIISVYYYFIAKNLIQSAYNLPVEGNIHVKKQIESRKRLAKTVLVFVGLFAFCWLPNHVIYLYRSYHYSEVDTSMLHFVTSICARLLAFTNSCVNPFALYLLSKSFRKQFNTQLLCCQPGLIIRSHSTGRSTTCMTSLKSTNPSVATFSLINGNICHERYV

`CC(C)C[C@H](NC(=O)C[C@H](O)[C@H](CC(C)C)NC(=O)[C@H](Cc1c[nH]cn1)NC(=O)CNC(=O)[C@@H](NC(=O)[C@H](C)NC(=O)[C@H](Cc1c[nH]c2ccccc12)NC(=O)[C@H](CCC(N)=O)NC(=O)[C@@H](Cc1ccccc1)NC(=O)COCCOCCNC(=O)[C@@H](N)Cc1ccc(O)cc1)C(C)C)C(N)=O` [Tyr-PEG2-RM26, Tyrosine-PEG2-[D-Phe^6, Sta^13, Leu^14] bombesin[6–14]] showed an IC50 (GRPR [1]) of 1.7 ± 0.3 nM.
With `CC(C)C[C@H](NC(=O)C[C@H](O)[C@H](CC(C)C)NC(=O)[C@H](Cc1c[nH]cn1)NC(=O)CNC(=O)[C@@H](NC(=O)[C@H](C)NC(=O)[C@H](Cc1c[nH]c2ccccc12)NC(=O)[C@H](CCC(N)=O)NC(=O)[C@@H](Cc1ccccc1)NC(=O)COCCOCCNC(=O)CN1CCN(CC(=O)O)CCN(CC(=O)O)CCN(CC(=O)O)CC1)C(C)C)C(N)=O` [[^111In]In-DOTA-PEG2-RM26, metal not drawn, reference compound] the “Uptake in pancreas, blocked vs non-blocked group” value [2] was “significant (p < 0.05) reduction”, the “Uptake, tumour” value [3] was 13.2 ± 4.8 ^a,h % ID/g and the tissue uptake at 0.5 h (in vivo; blood, blood) was 2.1 ± 0.8 %ID/g. It also gave a tissue uptake at 3 h (in vivo; blood, blood) of 0.03 %ID/g, a tissue uptake at 24 h (in vivo; blood, blood) of 0.006 ± 0.002 %ID/g and a tissue uptake at 0.5 h (in vivo; bone, bone) of 0.6 ± 0.3 %ID/g. For the same compound, the tissue uptake at 3 h (in vivo; bone, bone) was 0.05 ± 0.02 %ID/g, the tissue uptake at 0.5 h (in vivo; kidney, kidney) was 9.1 ± 2.9 %ID/g and the tissue uptake at 3 h (in vivo; kidney, kidney) was 2.4 ± 0.3 %ID/g. It also gave a tissue uptake at 0.5 h (in vivo; liver, liver) of 0.8 ± 0.2 %ID/g, a tissue uptake at 3 h (in vivo; liver, liver) of 0.2 %ID/g and a tissue uptake at 24 h (in vivo; liver, liver) of 0.1 %ID/g. For the same compound, the tissue uptake at 0.5 h (in vivo; lung, lung) was 1.8 ± 0.4 %ID/g, the tissue uptake at 3 h (in vivo; lung, lung) was 0.1 %ID/g and the tissue uptake at 0.5 h (in vivo; muscle, muscle) was 0.4 ± 0.1 %ID/g. It also gave a tissue uptake at 3 h (in vivo; muscle, muscle) of 0.02 %ID/g, a tissue uptake at 0.5 h (in vivo; pancreas, pancreas) of 6.5 ± 1.4 %ID/g and a tissue uptake at 3 h (in vivo; pancreas, pancreas) of 0.2 %ID/g. The tissue uptake at 0.5 h (in vivo; salivary gland, salivary gland) was 0.8 ± 0.2 %ID/g, the tissue uptake at 3 h (in vivo; salivary gland, salivary gland) was 0.07 ± 0.02 %ID/g and the tissue uptake at 0.5 h (in vivo; [6]) was 1.5 ± 0.5 %ID/g. For the same compound, the tissue uptake at 3 h (in vivo; [6]) was 0.2 ± 0.1 %ID/g, the tissue uptake at 0.5 h (in vivo; spleen, spleen) was 0.6 ± 0.2 %ID/g and the tissue uptake at 3 h (in vivo; spleen, spleen) was 0.1 %ID/g. The tissue uptake at 0.5 h (in vivo; stomach, stomach) was 2.9 ± 1.1 %ID/g, the tissue uptake at 0.5 h (in vivo; thyroid, thyroid) was 1.1 ± 0.5 %ID/g and the tissue uptake at 3 h (in vivo; thyroid, thyroid) was 0.1 %ID/g. It also gave a tissue uptake at 0.5 h (in vivo; tumour, tumour, non-blocked) of 13 ± 5 %ID/g, a tissue uptake at 3 h (in vivo; tumour, tumour) of 9.6 ± 0.6 %ID/g and a tissue uptake at 24 h (in vivo; tumour, tumour) of 3.6 ± 1.3 %ID/g. For the same compound, the logP [4] was -2.6 ± 0.4.
In the case of “[^125I]I-GRP: agonistic radioiodinated gastrin-releasing peptide (VPLPAGGGTVLTKMYPRGNHWAVGHLM; ends and bridges not checked; also: 125I radioiodination, position not given here; UniProt P07492 24-50, looked up)”, the Internalization (GRPR [5]) is listed as 75–80%.
